In patent US20120101093A1, “SUBSTITUTED IMIDAZO[1,2-A]PYRIDINE DERIVATIVES, PHARMACEUTICAL COMPOSITIONS, AND METHODS OF USE AS BETA-SECRETASE INHIBITORS” (HIGH POINT PHARMACEUTICALS, LLC, priority 2009, published 2012):

Columns and labels:
[1] = system: Aβ1-40 secreted from HEK293 cells stably expressing wildtype human APP695 protein (HEK-APPwt cells); assay: Aβ Cell Based Assay (Aβ1-40 secretion, ELISA); details: Homo sapiens, HEK293, 6 h, 6 hours incubation, reduction of Aβ1-40 secretion
Method in brief: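 Cells in DMEM with 2% FBS exposed to ten compound concentrations for 6 h at 37 °C. Secreted Aβ1-40 in supernatant quantified by sandwich ELISA (82E1 capture, TMB, OD450). EC50 from percent inhibition, DAPT defining 100% inhibition, non-linear fit.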

BACE-1 enzyme = molecular target: T1, BACE-1 enzyme (Homo sapiens, UniProt P56817); assay: BACE Fluorescence Resonance Energy Transfer (FRET) Assay; format: biochemical; details: pH 4-4.5, 30 min pre-incubation, about 1.5 hours reaction
T1 construct: purchased R & D Systems 931AS
T1 sequence (P56817 46-457 limits assumed): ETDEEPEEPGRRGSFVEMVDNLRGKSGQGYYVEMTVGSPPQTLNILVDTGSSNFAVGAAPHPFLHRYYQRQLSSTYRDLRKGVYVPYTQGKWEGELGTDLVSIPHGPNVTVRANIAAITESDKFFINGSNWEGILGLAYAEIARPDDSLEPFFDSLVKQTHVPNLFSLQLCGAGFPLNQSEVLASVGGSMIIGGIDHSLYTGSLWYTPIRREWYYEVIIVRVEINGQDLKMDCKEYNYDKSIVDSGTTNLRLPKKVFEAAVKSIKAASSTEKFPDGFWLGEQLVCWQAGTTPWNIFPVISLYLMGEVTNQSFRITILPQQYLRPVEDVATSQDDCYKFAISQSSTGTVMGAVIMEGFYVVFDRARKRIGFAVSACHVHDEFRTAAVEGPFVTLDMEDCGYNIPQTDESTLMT
Method in brief: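 Fluorescence (ex 540, em 585 nm) after ~1.5 h room-temperature cleavage of a quenched rhodamine peptide tracks BACE-1 activity. Enzyme and compound first sit 30 min in pH 4-4.5 acetate buffer with CHAPS, Triton X-100, EDTA, 7.5% DMSO. Values given as IC50 or % inhibition.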

Row | SMILES | IC50 (BACE-1 enzyme) | EC50 [1]
1 | CCN(C)Cc1ccc2nc(C(=O)Nc3nc4cc(-c5cccc(C(F)(F)F)c5)ccc4[nH]3)cn2c1 [Example 188, 6-[(Ethyl-methyl-amino)-methyl]-imidazo[1,2-a]pyridine-2-carboxylic acid [5-(3-trifluoromethyl-phenyl)-1H-benzoimidazol-2-yl]-amide] | 0.69 µM | 3.6 µM
2 | O=C(Nc1nc2cc(-c3cccc(C(F)(F)F)c3)ccc2[nH]1)c1cn2ccc(CN3CCOCC3)cc2n1 [Example 201, 7-Morpholin-4-ylmethyl-imidazo[1,2-a]pyridine-2-carboxylic acid [5-(3-trifluoromethyl-phenyl)-1H-benzoimidazol-2-yl]-amide] | 0.97 µM | 0.87 µM
3 | O=C(Nc1nc2cc(-c3cccc(C(F)(F)F)c3)ccc2[nH]1)c1cn2ccc(CNCc3ccncc3)cc2n1 [Example 204, 7-{[(Pyridin-4-ylmethyl)-amino]-methyl}-imidazo[1,2-a]pyridine-2-carboxylic acid [5-(3-trifluoromethyl-phenyl)-1H-benzoimidazol-2-yl]-amide] | 0.47 µM | 2.37 µM
4 | CCN(C)Cc1ccn2cc(C(=O)Nc3nc4cc(-c5cccc(C(F)(F)F)c5)ccc4[nH]3)nc2c1 [Example 205, 7-[(Ethyl-methyl-amino)-methyl]-imidazo[1,2-a]pyridine-2-carboxylic acid [5-(3-trifluoromethyl-phenyl)-1H-benzoimidazol-2-yl]-amide] | 0.59 µM | 3.2 µM
5 | O=C(Nc1nc2cc(-c3cccc(C(F)(F)F)c3)ccc2[nH]1)c1cn2ccc(CNCC(O)c3ccccc3)cc2n1 (stereo not shown) [Example 206, 7-[(2-Hydroxy-2-phenyl-ethylamino)-methyl]-imidazo[1,2-a]pyridine-2-carboxylic acid [5-(3-trifluoromethyl-phenyl)-1H-benzoimidazol-2-yl]-amide] | 0.44 µM | 7.43 µM

Second part, led by results:

Row | IC50 (BACE-1 enzyme) | SMILES | EC50 [1]
6 | 0.4 µM | O=C(Nc1nc2cc(-c3cccc(C(F)(F)F)c3)ccc2[nH]1)c1cn2cccc(CO)c2n1 [Example 192, 8-Hydroxymethyl-imidazo[1,2-a]pyridine-2-carboxylic acid [5-(3-trifluoromethyl-phenyl)-1H-benzoimidazol-2-yl]-amide] | 2.56 µM
7 | 0.87 µM | CN1CCN(Cc2cccn3cc(C(=O)Nc4nc5cc(-c6cccc(C(F)(F)F)c6)ccc5[nH]4)nc23)CC1 [Example 194, 8-(4-Methyl-piperazin-1-ylmethyl)-imidazo[1,2-a]pyridine-2-carboxylic acid [5-(3-trifluoromethyl-phenyl)-1H-benzoimidazol-2-yl]-amide] | 6.27 µM
8 | 0.45 µM | CNCc1cccn2cc(C(=O)Nc3nc4cc(-c5cccc(C(F)(F)F)c5)ccc4[nH]3)nc12 [Example 196, 8-Methylaminomethyl-imidazo[1,2-a]pyridine-2-carboxylic acid [5-(3-trifluoromethyl-phenyl)-1H-benzoimidazol-2-yl]-amide] | 5.96 µM
9 | 0.7 µM | CN(C)Cc1cccn2cc(C(=O)Nc3nc4cc(-c5cccc(C(F)(F)F)c5)ccc4[nH]3)nc12 [Example 197, 8-Dimethylaminomethyl-imidazo[1,2-a]pyridine-2-carboxylic acid [5-(3-trifluoromethyl-phenyl)-1H-benzoimidazol-2-yl]-amide] | 0.76 µM
10 | 0.94 µM | CC(C)CN(C)Cc1cccn2cc(C(=O)Nc3nc4cc(-c5cccc(C(F)(F)F)c5)ccc4[nH]3)nc12 [Example 199, 8-[(Isobutyl-methyl-amino)-methyl]-imidazo[1,2-a]pyridine-2-carboxylic acid [5-(3-trifluoromethyl-phenyl)-1H-benzoimidazol-2-yl]-amide] | 5.34 µM
11 | 0.9 µM | CN(C)Cc1ccn2cc(C(=O)Nc3nc4cc(-c5cccc(C(F)(F)F)c5)ccc4[nH]3)nc2c1 [Example 202, 7-Dimethylaminomethyl-imidazo[1,2-a]pyridine-2-carboxylic acid [5-(3-trifluoromethyl-phenyl)-1H-benzoimidazol-2-yl]-amide] | 4.54 µM
